This note sets out measurements from PubChem BioAssay (NCI).

Holding throughout (assay): NCI anticancer screen, dose series, 48 h
Assay [1] relates to HCT-15 colon.
Assay [2] relates to HS 578T breast.
The test system of assay [3] is IGROV1 ovarian.
Assay [4] relates to M14 melanoma.
In assay [5] the test system is MCF7 breast.
The test system of assay [6] is PC-3 prostate.
The subject of assay [7] is RXF 393 renal.
Assay [8] has as its system SNB-75 CNS.
Assay [9] concerns SW-620 colon.
For assay [10], the system named is T-47D breast.

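48-hour exposure; five concentrations; linearly interpolated endpoints. Abbreviation: GI50, concentration required for 50% inhibition of growth. TGI marks complete inhibition of growth.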

In the case of `CC[C@H](C)[C@H](NC(=O)C12CC(NC(C)=O)(C1)C2)C(=O)N(C)[C@H](C[C@@H](OC(C)=O)c1nc(C(=O)N[C@@H](Cc2ccccc2)C[C@H](C)C(=O)OC)cs1)C(C)C`, the GI50 was 1.09 µM in assay [1]; 0.505 µM in [2]; 0.502 µM in [3]; 0.13 µM in assay [4]; 0.0489 µM in assay [5]; 0.194 µM in assay [6]. Besides, the GI50 in assay [7] was 0.359 µM; in [8], 0.123 µM; in assay [9], 0.0854 µM. The TGI was more than 16.7 µM in assay [1]; more than 9.51 µM in assay [2]; more than 16.7 µM in assay [3]; 1.88 µM in assay [4]; more than 16.7 µM in [5]; more than 16.7 µM in assay [6]. In addition, the TGI in [7], in [8] and in assay [9] was more than 16.7 µM throughout.

As to `CCNCCNc1cc(-c2cccc(C(F)(F)F)c2)c(C#N)c2nc3ccccc3n12`, the GI50 is 0.708 µM in [1]; 1.84 µM in assay [2]; 1.72 µM in assay [3]; 1.71 µM in assay [4]; 1.83 µM in assay [6]; 1.49 µM in assay [7]. The GI50 in assay [8] is 1.5 µM; in [9] it was 0.39 µM; in [10] it was 2.2 µM. In addition, the TGI worked out at 2.12 µM in assay [1]; 3.88 µM in [2]; 3.49 µM in [3]; 3.25 µM in assay [4]; 3.54 µM in assay [6]; 3.1 µM in assay [7]. Also, the TGI worked out at 2.92 µM in assay [8], 1.51 µM in assay [9] and 4.21 µM in assay [10].

Take `CS[C@@]1(C(=O)Nc2ccc3[nH]nc(-c4ccc(OC(C)C)nc4)c3c2)CCN(CC(=O)N2CC=C(c3ccc(-c4ncn(C)n4)cc3)CC2)C1`: the GI50 in [1] is 2.27 µM; in assay [3], 0.271 µM; in [4] it was 0.032 µM; in assay [5] it was 13.9 µM; in assay [6] it was 6.56 µM; in [8], more than 100 µM. For the same compound, the GI50 in assay [9] was 0.201 µM; in assay [10], 27.9 µM. For the same compound, the TGI in assay [1], in assay [3], in assay [5], in assay [6], in [8] and in assay [9] was more than 100 µM in each case. Also, the TGI in [10] was more than 100 µM.

For the compound `OC(c1ccccc1)c1c(-c2ccccc2)oc(-c2ccccc2)c1C(O)c1ccccc1` (configuration not stated), the TGI in [1] amounted to 36.8 µM; in [2] it was 52.7 µM; in assay [3], 28.1 µM; in assay [4], 21.9 µM; in assay [5], 16.6 µM; in [6] it was 24.1 µM. Also, the TGI in [7] was 21.5 µM; in assay [9], 34.1 µM; in [10], 23.3 µM.

Turning to `CC1(C)CC2CC(C)(CN2c2ncnc3ccc(Br)cc23)C1` (configuration not stated), the GI50 was 15.5 µM in assay [1]; 10.3 µM in assay [2]; 10.9 µM in assay [3]; 11 µM in [4]; 11 µM in assay [7]; 15 µM in assay [9]. Also, the GI50 in assay [10] was 13 µM. Besides, the TGI was 28.9 µM in [1]; 30.4 µM in [2]; 22.8 µM in [3]; 22.9 µM in assay [4]; 23.6 µM in [7]; 30.7 µM in assay [9]. The compound further yielded a TGI in [10] of 31.2 µM.

On to `COc1cccc(Nc2nccc(Nc3ccc4[nH]ncc4c3)n2)c1`, for which the GI50 in [1] was 1.21 µM; in [2], 1.79 µM; in assay [4], 1.35 µM; in assay [5], 1.26 µM; in [6], 1.34 µM; in [7] it was 1.06 µM. The results for the GI50 in assay [8], in [9] and in [10] were 1.39 µM, 2.41 µM and 1.05 µM, respectively. The TGI amounted to 2.91 µM in assay [1]; 4.61 µM in [2]; 2.81 µM in assay [4]; 3.11 µM in assay [5]; 3.12 µM in assay [6]; 2.33 µM in assay [7]. Further, the TGI in [8] turned out to be 3.13 µM; in [9], 6.13 µM; in assay [10] it was 3.12 µM.

In the case of `O=C1c2ccccc2C(=O)c2sc(Nc3ccc(Cl)c(Cl)c3)nc21`, the TGI in assay [1] was 5.06 µM; in assay [2], 53.2 µM; in assay [3] it was 10.1 µM; in [4], 9.86 µM; in assay [7], 12.4 µM; in assay [8] it was 26.7 µM. The TGI in [9] was 3.19 µM; in [10], 22.7 µM.

On to `CCN(CC)c1ccc2nc3c4ccccc4c(=NC(=O)c4ccccc4-c4c5ccc(N(CC)CC)cc5[o+]c5cc(N(CC)CC)ccc45)cc-3oc2c1`, for which the GI50 in assay [1] was 1.42 µM; in [3] it was 2.41 µM; in assay [4] it was 2.47 µM; in [5], 1.59 µM; in [6], 1.97 µM; in assay [8], 8.27 µM. Moreover, the GI50 in [9] was 2.54 µM; in assay [10], 5.25 µM. The TGI in [1] is 3.9 µM; in [3] it was 7.49 µM; in assay [6], more than 20.6 µM; in assay [8], 23.5 µM; in assay [9], more than 22.5 µM; in assay [10], 17.3 µM.

For the compound `N#CC(C#N)=Cc1ccc(-c2ccc(-c3nc4ccccc4o3)cc2)o1`, the GI50 in [1] was 20.2 µM; in assay [3], 65.8 µM; in assay [4], 77.4 µM; in [5] it was 7.99 µM; in assay [6], 29.5 µM; in assay [7], 96.2 µM. Also, the results for the GI50 in assay [8], in assay [9] and in assay [10] were more than 100 µM, 20.5 µM and 5.04 µM, respectively. The TGI in [1], in assay [3], in [4], in [5], in assay [6] and in assay [7] was more than 100 µM in each case. The values for the TGI in assay [8], in assay [9] and in assay [10] were more than 100 µM, more than 100 µM and 90.1 µM, respectively.
